Among the data in PubChem BioAssay (NCI) are TGI values, retold here.

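How tested: cells in 96-well plates exposed to compound for 48 hours at five concentrations. TGI marks complete inhibition of growth.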

Common to all, as to assay: inhibition of tumour cell growth, NCI panel, 48 h
The test system of experiment [1] is SNB-19 CNS.
The subject of experiment [2] is MCF7 breast.
In experiment [3] the test system is NCI/ADR-RES ovarian.
For experiment [4], the system named is SK-MEL-2 melanoma.
Experiment [5] concerns NCI-H226 lung.
In experiment [6] the test system is MOLT-4 leukemia.
In experiment [7] the test system is NCI-H23 lung.
The subject of experiment [8] is KM12 colon.
Experiment [9] has as its system A549 NSCLC.
Experiment [10] concerns LOX IMVI melanoma.
Experiment [11] concerns HOP-92 NSCLC.
Experiment [12] concerns MDA-MB-435.

With `COc1ccc(N(C(=O)OC(C)(C)C)[C@@H]2C(C)=C[C@H]([S@@](=O)c3ccc(C)cc3)[C@@H]3C(=O)N(C)C(=O)[C@@H]32)cc1`, the TGI in experiment [1] stood at 51.5 µM; in experiment [2], 62.1 µM; in experiment [3] it was 52.1 µM; in experiment [4] it was 39.3 µM; in experiment [5], 34.6 µM; in [6], 94.6 µM. The TGI was 45.7 µM in experiment [7]; 30.5 µM in experiment [8]; greater than 100 µM in [9]; 17.5 µM in experiment [10]; 61.5 µM in [11]; 37.9 µM in [12].

Take `CCOC(=O)Cc1csc(/N=C\c2c(O)c3ccccc3oc2=O)n1`: the TGI in experiment [1] is greater than 100 µM; in experiment [2], greater than 100 µM; in experiment [3], 64 µM; in [4] it was 40.4 µM; in experiment [5] it was 97.8 µM; in [6], 42.7 µM. For the same compound, the TGI in experiment [7] was 94.4 µM; in [8] it was greater than 100 µM; in [9] it was greater than 100 µM; in experiment [10] it was greater than 100 µM; in experiment [11], 47.3 µM; in experiment [12], 85.4 µM.

For the compound `O=[N+]([O-])c1ccccc1S(=O)(=O)N1CCCc2cc(Cl)ccc21`, the TGI is greater than 100 µM in experiment [1]; greater than 80.3 µM in [2]; greater than 89.1 µM in [3]; greater than 100 µM in experiment [4]; greater than 100 µM in experiment [5]; greater than 100 µM in experiment [6]. Besides, the TGI is greater than 100 µM in [7]; greater than 83.9 µM in experiment [8]; greater than 100 µM in [9]; greater than 100 µM in experiment [10]; greater than 100 µM in [11]; 41.7 µM in [12].

For the compound `COC(=O)CCCc1ccc2c(c1)CCC2`, the TGI in experiment [1], in [2], in experiment [3], in experiment [4], in experiment [5] and in experiment [6] was greater than 100 µM each time. Further, the TGI in experiment [7], in experiment [8], in experiment [9], in [10], in [11] and in experiment [12] was greater than 100 µM in each case.

Turning to `CCOC(=O)/C(O)=C(\C=N\C(=S)Nc1ccc(Cl)c(Cl)c1)C(=O)OCC`, the TGI in [1], in [2], in experiment [3], in experiment [4], in [5] and in experiment [6] was greater than 100 µM throughout. In addition, the TGI in [7], in experiment [8], in experiment [9], in [10], in experiment [11] and in experiment [12] was greater than 100 µM each time.

With `COc1ccccc1NC(=S)N/N=C(/c1ccccc1)c1ccccn1`, the TGI in [1] turned out to be 21.8 µM; in [2], 3.62 µM; in experiment [3], 11.3 µM; in experiment [4], 21.7 µM; in experiment [5], 8.64 µM; in experiment [6], 0.403 µM. Further, the TGI was found to be 24.3 µM in [7]; 14 µM in [8]; 16.3 µM in experiment [9]; 15.7 µM in experiment [10]; 15.6 µM in experiment [11]; 20 µM in experiment [12].

For the compound `CC(C)(C)[Si](C)(C)OCC1OC(n2ccc(=O)[nH]c2=O)C(O[Si](C)(C)C(C)(C)C)/C1=N/O` (configuration not stated), the TGI amounted to 18.1 µM in [1]; 27.7 µM in experiment [2]; 8.79 µM in experiment [3]; 9.48 µM in [4]; 9.24 µM in [5]; 6.57 µM in experiment [6]. In addition, the TGI in experiment [7] is 14.8 µM; in experiment [8], greater than 22.6 µM; in experiment [9], 14 µM; in [10], 10.5 µM; in [11], 8.95 µM; in experiment [12] it was 9.95 µM.

As for `CC1(C)COC(c2cccc(C3=NC(C)(C)CO3)c2)=N1`, the TGI in [1], in experiment [2], in experiment [3], in [4], in [5] and in experiment [6] was greater than 100 µM throughout. The TGI in [7], in [8], in experiment [9], in experiment [10], in experiment [11] and in experiment [12] was greater than 100 µM each time.

As to `CCC(C#N)N(Cc1cccc(CN(C(C)=O)C(C#N)CC)c1)C(C)=O` (configuration not stated), the TGI in [1], in [2], in experiment [3], in [4], in [5] and in [6] was greater than 100 µM throughout. Also, the TGI in [7], in experiment [8], in experiment [9], in experiment [10], in experiment [11] and in [12] was greater than 100 µM throughout.

Take `CCOC(=O)c1c(OCC)[nH]c(=O)c(C(c2ccc(F)cc2)c2c(O)c(C(=O)OCC)c(OCC)[nH]c2=O)c1O`: the TGI in experiment [1] was 42.2 µM; in experiment [2] it was 60.7 µM; in experiment [3], greater than 100 µM; in experiment [4] it was 37 µM; in [5], 26.1 µM; in [6], 71 µM. Further, the TGI in experiment [7] was determined as 43.6 µM; in [8], 37.7 µM; in experiment [9] it was 29.3 µM; in experiment [10] it was 33.1 µM; in experiment [11] it was 18.1 µM; in experiment [12], 37.7 µM.

For `CCC1OC2C(CC=C(C)C)=C3OC(C)(O)C(C)(CC)C(O)C3=C3OC(=O)C=C1C32` (configuration not stated), the TGI is greater than 100 µM in experiment [1]; greater than 100 µM in experiment [2]; greater than 100 µM in experiment [3]; 84.5 µM in experiment [4]; greater than 100 µM in experiment [5]; greater than 100 µM in [6]. The TGI in experiment [7] is 57.7 µM; in experiment [8], greater than 100 µM; in experiment [9], greater than 100 µM; in experiment [10] it was 35.9 µM; in experiment [11] it was 54.9 µM; in experiment [12], greater than 100 µM.
